Laboratory results: patent publication US12612424B2, “HPK1 inhibitors and uses thereof” (Regor Pharmaceuticals, Inc., priority 2019, dated 2026)

Experiments:
HPK1 = HPK1 (Homo sapiens, UniProt Q92918); assay: HPK1 biochemical assay (ADP-GLO Kinase Assay); conditions: B*: testing performed in a first testing facility; read-out: HPK1 IC50 (nM) Relative, B*
In short: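 HPK1 (0.6 ng/μL final) activity was followed with MBP substrate and 10 μM ATP in Tris pH 7.5/MgCl2/BSA/DTT buffer, measured by ADP-Glo luminescence. Compounds were tested as 3-fold dilutions from 10 μM. IC50 came from a three-parameter logistic fit, with inhibition normalised to high/low controls.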

JAK3 = molecular target: T1, JAK3 (Homo sapiens, UniProt P52333); assay: JAK3 biochemical assay (ADP-GLO Kinase Assay); conditions: for IC50: B*: testing performed in a first testing facility, read-out: JAK3 IC50 (nM) Relative, B*; for JAKs/HPK1 IC50 Ratio, B*: ratio of JAK3 IC50 to HPK1 IC50, first testing facility
T1 construct: purchased Thermo fisher PV3855
In short: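 Human JAK3 (0.78 ng) with 0.2 μg/μL Poly(E4Y1) and 4 μM ATP in 40 mM Tris pH 7.5, 20 mM MgCl2, 0.1 mg/ml BSA, 50 μM DTT, 1% DMSO; 60 min at 25 °C. ADP formed read by ADP-Glo luminescence. 10-dose 3-fold series from 10 μM; IC50 by three-parameter logistic fit.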

T1 sequence (P52333 781-1124 limits assumed): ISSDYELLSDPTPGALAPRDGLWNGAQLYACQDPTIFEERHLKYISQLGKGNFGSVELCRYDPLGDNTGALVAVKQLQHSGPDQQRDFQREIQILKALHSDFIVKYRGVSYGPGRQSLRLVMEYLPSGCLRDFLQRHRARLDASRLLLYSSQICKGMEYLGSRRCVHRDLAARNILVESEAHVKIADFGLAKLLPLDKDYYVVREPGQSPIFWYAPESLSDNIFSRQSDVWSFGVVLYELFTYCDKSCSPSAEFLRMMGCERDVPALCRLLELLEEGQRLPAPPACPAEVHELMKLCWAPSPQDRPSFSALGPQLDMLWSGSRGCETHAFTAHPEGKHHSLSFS
Chain of HPK1 (Q92918 whole entry): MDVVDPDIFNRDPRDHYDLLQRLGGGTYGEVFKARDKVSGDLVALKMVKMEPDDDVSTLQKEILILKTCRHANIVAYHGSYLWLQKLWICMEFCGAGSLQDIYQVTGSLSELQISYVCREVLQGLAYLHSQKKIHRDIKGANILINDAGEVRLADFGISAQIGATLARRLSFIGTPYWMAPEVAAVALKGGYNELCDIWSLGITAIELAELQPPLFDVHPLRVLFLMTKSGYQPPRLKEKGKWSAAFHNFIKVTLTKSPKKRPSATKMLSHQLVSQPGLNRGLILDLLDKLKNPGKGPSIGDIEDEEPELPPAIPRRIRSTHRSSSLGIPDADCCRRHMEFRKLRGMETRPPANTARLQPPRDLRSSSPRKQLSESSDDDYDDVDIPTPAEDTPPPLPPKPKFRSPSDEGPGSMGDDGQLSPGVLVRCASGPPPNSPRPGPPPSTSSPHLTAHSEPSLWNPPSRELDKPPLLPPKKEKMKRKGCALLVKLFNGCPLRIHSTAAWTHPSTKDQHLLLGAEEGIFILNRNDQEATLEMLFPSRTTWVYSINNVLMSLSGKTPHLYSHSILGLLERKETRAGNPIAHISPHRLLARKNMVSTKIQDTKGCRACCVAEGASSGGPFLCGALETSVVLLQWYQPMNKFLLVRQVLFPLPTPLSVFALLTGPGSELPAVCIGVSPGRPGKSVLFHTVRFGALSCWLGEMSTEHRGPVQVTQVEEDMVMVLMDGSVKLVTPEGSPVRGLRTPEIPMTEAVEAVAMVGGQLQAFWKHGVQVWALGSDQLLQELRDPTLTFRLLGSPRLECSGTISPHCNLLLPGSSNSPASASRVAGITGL

Row | Structure (SMILES) | IC50 (HPK1) [nM] | IC50 (JAK3) [nM] | JAKs/HPK1 IC50 Ratio, B* (JAK3)
1 | COc1cc2c(cc1Nc1ncc(Cl)c(N3CCc4ccc(C(F)F)cc43)n1)CN(C)CC2 [Example 91, N-(5-chloro-4-(6-(difluoromethyl)indolin-1-yl)pyrimidin-2-yl)-6-methoxy-2-methyl-1,2,3,4-tetrahydroisoquinolin-7-amine] | ≤ 100 | > 1000 | >1500
2 | COc1cc2c(cc1Nc1ncc(Cl)c(N3CCc4c(C(F)F)cccc43)n1)CN(C)CC2 [Example 92, N-(5-chloro-4-(4-(difluoromethyl)indolin-1-yl)pyrimidin-2-yl)-6-methoxy-2-methyl-1,2,3,4-tetrahydroisoquinolin-7-amine] | ≤ 100 | > 1000 | 393
3 | CNC(=O)C1CN(c2nc(Nc3cc4c(cc3OC)CCN(C)C4)ncc2Cl)c2ccccc21 (centres unmarked) [Example 97, 1-(5-Chloro-2-((6-methoxy-2-methyl-1,2,3,4-tetrahydroisoquinolin-7-yl)amino)pyrimidin-4-yl)-N-methylindoline-3-carboxamide] | ≤ 100 | > 1000 | 800
4 | COc1cc2c(cc1Nc1ncc(Cl)c(N3CC(C(=O)NS(C)(=O)=O)c4ccccc43)n1)CN(C)CC2 (centres unmarked) [Example 98] | ≤ 100 | > 1000 | 508
5 | COc1cc2c(cc1Nc1ncc(Cl)c(N3CC(C#N)c4ccccc43)n1)CN(C)CC2 (centres unmarked) [Example 99, 1-(5-Chloro-2-((6-methoxy-2-methyl-1,2,3,4-tetrahydroisoquinolin-7-yl)amino)pyrimidin-4-yl)indoline-3-carbonitrile] | ≤ 100 | ≤ 100 | 100
6 | COc1cc2c(cc1Nc1ncc(Cl)c(N3CC(C(=O)NO)c4ccccc43)n1)CN(C)CC2 (centres unmarked) [Example 101, 1-(5-Chloro-2-((6-methoxy-2-methyl-1,2,3,4-tetrahydroisoquinolin-7-yl)amino)pyrimidin-4-yl)-N-hydroxyindoline-3-carboxamide] | ≤ 100 | > 1000 | 373
7 | COc1cc2c(cc1Nc1ncc(Cl)c(N3CC(C(=O)N(C)O)c4ccccc43)n1)CN(C)CC2 (centres unmarked) [Example 102] | ≤ 100 | > 1000 | >2603
8 | CONC(=O)C1CN(c2nc(Nc3cc4c(cc3OC)CCN(C)C4)ncc2Cl)c2ccccc21 (centres unmarked) [Example 103, 1-(5-Chloro-2-((6-methoxy-2-methyl-1,2,3,4-tetrahydroisoquinolin-7-yl)amino)pyrimidin-4-yl)-N-methoxyindoline-3-carboxamide] | ≤ 100 | 500 to 1000 | 540
9 | COc1cc2c(cc1Nc1ncc(Cl)c(N3CC(C(=O)O)c4cc(F)ccc43)n1)CN(C)CC2 (centres unmarked) [Example 104] | ≤ 100 | ≤ 100 | 45

Second part, the molecule after the results:

Row | IC50 (HPK1) [nM] | IC50 (JAK3) [nM] | JAKs/HPK1 IC50 Ratio, B* (JAK3) | Structure (SMILES)
10 | 100 to 500 | > 1000 |  | COc1cc2c(cc1Nc1ncc(Cl)c(-n3cc(C4(O)COC4)c4ccccc43)n1)CN(C)CC2 [Example 93]
11 | ≤ 100 | 100 to 500 | 200 | COc1cc2c(cc1Nc1ncc(Cl)c(N3CC(c4nn[nH]n4)c4ccccc43)n1)CN(C)CC2 (centres unmarked) [Example 100, N-(4-(3-(2H-tetrazol-5-yl)indolin-1-yl)-5-chloropyrimidin-2-yl)-6-methoxy-2-methyl-1,2,3,4-tetrahydroisoquinolin-7-amine]
12 | ≤ 100 | 100 to 500 | 140 | COc1cc2c(cc1Nc1ncc(Cl)c(N3CC(C(=O)O)c4ccc(F)cc43)n1)CN(C)CC2 (centres unmarked) [Example 105]
13 | ≤ 100 | > 1000 | 2200 | COc1ccc2c(c1)N(c1nc(Nc3cc4c(cc3OC)CCN(C)C4)ncc1Cl)CC2C(=O)O (centres unmarked) [Example 107, 1-(5-Chloro-2-((6-methoxy-2-methyl-1,2,3,4-tetrahydroisoquinolin-7-yl)amino)pyrimidin-4-yl)-6-methoxyindoline-3-carboxylic acid]
